# According to article PMC10082216 (Nature Communications, 2023):
# Several values for one entry are separate records, joined by “and”; a condition that tells them apart may be missing. Identical values can stand only once. Like-named read-outs stand apart in the source and are kept apart here.
# Assay: TD-6450 phase I clinical study (SAD/MAD): pharmacokinetics
# Assay type: in vivo, human
# Settings: for Cmax: read-out: Cmax Mean ± SD; for half-life: read-out: t1/2 Mean ± SD (converted)
# Method: Primary and secondary outcomes were pre-defined as follows: Safety and tolerability as a primary outcome, pharmacokinetics as a secondary outcome. Safety and tolerability were evaluated using standard measures, including adverse event (AE) monitoring, clinical laboratory tests (hematology, serum chemistry, coagulation, and urinalysis), vital signs, physical examinations, and 12-lead electrocardiograms (ECGs). […]
# This study was conducted in two parts, Part A (SAD) and Part B (MAD). For the Part A, the age of enrolled subjects ranged from 20 to 60 years, with a mean age range of 32.1 to 46.2 years. Most subjects were male (73 total subjects) and most were white (55 subjects) or black (22 subjects). For Part B of the study, ages ranged from 23 to 60 years with a similar mean age across treatment groups. Most subjects were male (25 total subjects) and all were either white (18 subjects) or black (12 subjects). For each part of the study, the mean body mass index (BMI) and creatinine clearance were similar across treatment groups. […] Part A: Healthy subjects were sequentially enrolled and randomly assigned to each dose cohort (up to 10 dose-ascending cohorts were planned, including a fed arm in the food effect cohort) to receive either a single dose of TD-6450 or placebo. For each dose cohort, 8 subjects were randomized in a 3:1 ratio (6 subjects received TD-6450 and 2 subjects received placebo). The starting dose of TD-6450 was 0.5 mg with a planned maximum dose of 1000 mg. Upon review of the 500-mg cohort PK data, the decision was made to not escalate to the 1000-mg cohort because of exposure saturation at ≥ 500 mg. The following doses were administered: 0.5 mg, 1.5 mg, 5 mg, 15 mg, 30 mg, 60 mg, 120 mg, 240 mg, and 500 mg. Part B: Healthy subjects were sequentially enrolled in 3 ascending dose cohorts (TD-6450 60 mg, 120 mg, and 240 mg) and randomly assigned to receive either TD-6450 or placebo as once daily doses for 14 days. For each dose cohort, 10 subjects were randomized in a 4:1 ratio (8 subjects received TD-6450 and 2 subjects received placebo). Blinded safety, tolerability, and available PK data after each dose cohort were reviewed by the Safety Data Review Committee (SDRC) before escalation to the next dosing cohort for both part A and B. Subjects of the clinical study were randomly assigned to each cohort. Randomizations codes were assigned to the subjects. All study subjects, study investigators, and the sponsor’s staff involved in the conduct of the study were blinded to treatment assignment. The only personnel who had access to the randomization code before database lock were: The pharmacist or pharmacy staff member who prepared drug or placebo capsules for administration to the subject according to the randomization code and the bioanalytical contract laboratory that analyzed the PK samples (plasma and urine).
# [1] = Male subjects, SAD arm NCT02022306, Dose 30.00, 3 Hours
# [2] = Male subjects, SAD arm NCT02022306, Dose 30.00, 4 Hours
# [3] = Male subjects, SAD arm NCT02022306, Dose 30.00, 72 Hours
# [4] = Male subjects, SAD arm NCT02022306, Dose 30.00, 96 Hours
# [5] = Male subjects, SAD arm NCT02022306, Dose 30.00, 120 Hours
# [6] = Male subjects, SAD arm NCT02022306, Dose 30.00, 144 Hours
# [7] = Male subjects, SAD arm NCT02022306, Dose 30.00, 168 Hours
# [8] = Male subjects, SAD arm NCT02022306, Dose 30.00, Predose
# [9] = both sexes, human, plasma, oral, 1.5 mg, SAD 1.5 mg
# [10] = both sexes, human, plasma, oral, 5 mg, SAD 5 mg
# [11] = both sexes, human, plasma, oral, 15 mg, SAD 15 mg
# [12] = both sexes, human, plasma, oral, 30 mg, SAD 30 mg
smiles,measurement,setting,value
CNC(=O)N1C[C@@H](C)N(c2ccc(C(=O)Nc3ccc(-c4ccc(-c5c[nH]c([C@@H]6CCCN6C(=O)[C@@H](NC(=O)OC)C(C)C)n5)cc4)c(OC(F)(F)F)c3)cn2)C[C@@H]1C [TD-6450],Concentration,"Female subjects, SAD arm NCT02022306, Dose 0.50, Predose",0.00 ng/mL
same,Concentration,"Female subjects, SAD arm NCT02022306, Dose 5.00, Predose",0.00 ng/mL
same,Concentration,"Female subjects, SAD arm NCT02022306, Dose 15.00, Predose",0.00 ng/mL
same,Concentration,"Female subjects, SAD arm NCT02022306, Dose 30.00, 3 Hours",41.80 ng/mL
same,Concentration,"Female subjects, SAD arm NCT02022306, Dose 30.00, 4 Hours",44.70 ng/mL
same,Concentration,"Female subjects, SAD arm NCT02022306, Dose 30.00, 6 Hours",43.90 ng/mL
same,Concentration,"Female subjects, SAD arm NCT02022306, Dose 30.00, 8 Hours",35.40 ng/mL
same,Concentration,"Female subjects, SAD arm NCT02022306, Dose 30.00, 12 Hours",27.90 ng/mL
same,Concentration,"Female subjects, SAD arm NCT02022306, Dose 30.00, 24 Hours",20.20 ng/mL
same,Concentration,"Female subjects, SAD arm NCT02022306, Dose 30.00, 48 Hours",17.50 ng/mL
same,Concentration,"Female subjects, SAD arm NCT02022306, Dose 30.00, 72 Hours",12.70 ng/mL
same,Concentration,"Female subjects, SAD arm NCT02022306, Dose 30.00, 96 Hours",9.33 ng/mL
same,Concentration,"Female subjects, SAD arm NCT02022306, Dose 30.00, 120 Hours",7.89 ng/mL
same,Concentration,"Female subjects, SAD arm NCT02022306, Dose 30.00, 144 Hours",6.17 ng/mL
same,Concentration,"Female subjects, SAD arm NCT02022306, Dose 30.00, 168 Hours",4.12 ng/mL
same,Concentration,"Female subjects, SAD arm NCT02022306, Dose 30.00, Predose",0.00 ng/mL
same,Concentration,"Female subjects, SAD arm NCT02022306, Dose 60.00, Predose",0.00 ng/mL
same,Concentration,"Male subjects, SAD arm NCT02022306, Dose 0.50, Predose",0.00 ng/mL
same,Concentration,"Male subjects, SAD arm NCT02022306, Dose 1.50, Predose",0.00 ng/mL
same,Concentration,"Male subjects, SAD arm NCT02022306, Dose 5.00, Predose",0.00 ng/mL
same,Concentration,"Male subjects, SAD arm NCT02022306, Dose 15.00, Predose",0.00 ng/mL
same,Concentration,[1],16.10 ng/mL
same,Concentration (ng/ml),[1],14.80 ng/mL
same,Concentration,[2],17.80 ng/mL
same,Concentration (ng/ml),[2],18.90 ng/mL
same,Concentration,"Male subjects, SAD arm NCT02022306, Dose 30.00, 6 Hours",21.60 ng/mL
same,Concentration,"Male subjects, SAD arm NCT02022306, Dose 30.00, 8 Hours",20.90 ng/mL
same,Concentration,"Male subjects, SAD arm NCT02022306, Dose 30.00, 12 Hours",16.40 ng/mL
same,Concentration,"Male subjects, SAD arm NCT02022306, Dose 30.00, 24 Hours",12.70 ng/mL
same,Concentration,"Male subjects, SAD arm NCT02022306, Dose 30.00, 48 Hours",9.02 ng/mL
same,Concentration,[3],7.45 ng/mL
same,Concentration (ng/ml),[3],9.39 ng/mL
same,Concentration,[4],6.04 ng/mL
same,Concentration (ng/ml),[4],7.13 ng/mL
same,Concentration,[5],4.98 ng/mL
same,Concentration (ng/ml),[5],5.80 ng/mL
same,Concentration,[6],3.71 ng/mL
same,Concentration (ng/ml),[6],4.24 ng/mL
same,Concentration,[7],3.30 ng/mL
same,Concentration (ng/ml),[7],3.28 ng/mL
same,Concentration,[8],0.00 ng/mL
same,Concentration (ng/ml),[8],0.00 ng/mL
same,Concentration (ng/ml),"Male subjects, SAD arm NCT02022306, Dose 60.00, 8 Hours",61.90 ng/mL and 92.80 ng/mL and 97.50 ng/mL and 65.40 ng/mL
same,Concentration (ng/ml),"Male subjects, SAD arm NCT02022306, Dose 60.00, Predose",0.00 ng/mL
same,Concentration (ng/ml),"Male subjects, SAD arm NCT02022306, Dose 120.00, Predose",0.00 ng/mL
same,Concentration (ng/ml),"Male subjects, SAD arm NCT02022306, Dose 240.00, Predose",0.00 ng/mL
same,Concentration (ng/ml),"Male subjects, SAD arm NCT02022306, Dose 500.00, 30 Minutes",2.54 ng/mL and 3.61 ng/mL and 2.21 ng/mL
same,Concentration (ng/ml),"Male subjects, SAD arm NCT02022306, Dose 500.00, Predose",0.00 ng/mL
same,Cmax,"both sexes, human, plasma, oral, 0.5 mg, SAD 0.5 mg",0.5 ± 0.1 nM
same,Cmax,[9],1.5 ± 0.4 nM
same,half-life,[9],84.3 h
same,Cmax,[10],5.37 ± 1.8 nM
same,half-life,[10],71.7 ± 5.2 h
same,Cmax,[11],21 ± 7.9 nM
same,half-life,[11],77 ± 14.2 h
same,Cmax,[12],37.4 ± 19 nM
same,half-life,[12],66.9 ± 9 h
same,Cmax at 1 day,"both sexes, human, plasma, oral, 60 mg, MAD 60 mg, day 1, read-out: Cmax Mean ± SD, D1",97.4 nM
same,Cmax at 14 day,"both sexes, human, plasma, oral, 60 mg, MAD 60 mg, day 14, read-out: Cmax Mean ± SD, D14",398 ± 146 nM
same,half-life at 14 day,"both sexes, human, plasma, oral, 60 mg, MAD 60 mg, day 14, read-out: t1/2 Mean ± SD, D14 (converted)",62.3 ± 10 h
